Laboratory results from patent US12616698B2, “Methods for reducing liver fat and for treating fatty liver disorders” (Corcept Therapeutics Incorporated, priority 2021, dated 2026).
Marks after values point to notes of the source that are not given here.

Tested on: patients presumed to have NASH
Test: Phase 2a study in patients with presumed NASH: liver fat by MRI-PDFF
Assay type: in vivo, human
Description: A Phase 2a, randomized, double-blind, placebo-controlled study (ClinicalTrials.gov Identifier: NCT03823703) was begun to assess the efficacy of two dose levels of miricorilant versus placebo in reducing liver fat in patients who were presumed to have non-alcoholic steatohepatitis (NASH), that presumption based on blood tests and noninvasive measures. Written informed consent was obtained before initiating any study-mandated procedures. The full study was planned to enroll approximately 120 patients, randomized 1:1:1 to receive daily 900 mg miricorilant:600 mg miricorilant: matching placebo.
Patients enrolled in the study were required to have consistent liver enzyme (ALT and AST) baseline measurements (established by two samples obtained at least 4 weeks and no more than six months apart), and a diagnosis of presumed NASH with fibrosis defined as meeting all of the following criteria: • a. Either: i) a historical liver biopsy within 1 year of Screening showing NASH, NAFLD Activity Score (NAS) greater than or equal to 4, and F1 to F3 fibrosis, or ii) an AST level greater than 17 U/L for women or AST level greater than 20 U/L for men AND a FibroScan liver stiffness measurement of greater than or equal to 8.5 kPa and a Controlled Attenuation Parameter (CAP) of greater than or equal to 300 dB/m in the 3 months prior to Screening or at Screening; • b. A MRI-PDFF with greater than or equal to 10% steatosis; and • c. The presence of two or more components of metabolic syndrome: type 2 diabetes treatment or fasting blood glucose greater than or equal to 126 mg/dL, BMI greater than or equal to 30 kg/m^2, hypertension treatment or blood pressure greater than or equal to 130/85, history of dyslipidemia, or waist circumference greater than or equal to 102 cm (40 in) in men and greater than or equal to 88 cm (35 in) in women.
Measures of the effectiveness of miricorilant versus placebo in reducing liver fat were assessed by magnetic resonance imaging (MRI). The change from baseline MRI measurements relative to MRI measurements taken following a course of daily miricorilant or placebo administration were assessed by magnetic resonance imaging-proton density fat fraction (MRI-PDFF). Additionally, effects of miricorilant may be assessed by measuring one or more of the following, either by comparing change from baseline after one or more days of miricorilant administration, or by comparing measurements in patients administered miricorilant versus patients administered placebo: change in liver fat assessed by MRI-PDFF; change in AST, ALT, and gamma-glutamyl transferase (GGT); change in propeptide of type III collagen (pro-C3); change in enhanced liver fibrosis (ELF) score and its components (hyaluronic acid, tissue inhibitor of metalloproteinases-1 [TIMP-1], type III procollagen [PIIINP]); change in ACTH, serum cortisol, and serum aldosterone (pharmacodynamic assessments); change in Homeostatic Model Assessment of Insulin Resistance (HOMA-IR); change in absolute body weight; and other measurements. […] For patients with diabetes, change in HbA1c and change in fasting blood glucose may be measured to assess the effects of miricorilant. Change in blood pressure may be measured in patients with high blood pressure to assess the effects of miricorilant. Pharmacokinetic (PK) parameters were estimated from steady state plasma concentrations of miricorilant.
Patients were randomized in a 1:1:1 ratio to 600 mg miricorilant, 900 mg miricorilant, or placebo. Study drug was administered once daily, orally with 8 oz (240 mL) of water, along with food. Patients were instructed to take a total of 6 tablets at approximately the same time each day. Those in the 600 miricorilant group took 4 miricorilant tablets and 2 placebo tablets. Those in the 900 miricorilant group took 6 miricorilant tablets. Those in the placebo group took 6 placebo tablets. […]

[1] = one patient, 600 mg per day, MRI-PDFF 26 days after cessation of study drug
[2] = patient 208-4020, 900 mg daily, 30 days on study drug, MRI 19 days after dose ended
[3] = patient 211-4002, 900 mg daily, 31 days on study drug, MRI 64 days after dose ended
[4] = patient 214-4007, 900 mg daily, 44 days on study drug, MRI 16 days after dose ended
[5] = patient 232-4016, 600 mg daily, 39 days on study drug, MRI 26 days after dose ended
[6] = patient 233-4018, 600 mg daily, 34 days on study drug, MRI 21 days after dose ended

For `O=c1[nH]c(=O)c(Cc2cccc(C(F)(F)F)c2)c([C@H]2CC[C@H](c3ccccc3)CC2)[nH]1` [miricorilant, (E)-6-(4-Phenylcyclohexyl)-5-(3-trifluoromethylbenzyl)-1H-pyrimidine-2,4-dione], the Liver fat levels (30 or 34 days of treatment, two of five patients administered miricorilant) was “normalized”, the Liver fat reductions (found in four patients (Table 3)) was “greater than 30%” and the “Resolution of fatty liver (MRI-PDFF <5%)” value (one patient (233-4018, 600 mg) of the four with liver fat decreases) was “*complete resolution of fatty liver (MRI-PDFF <5%)”. For the same compound, the “MRI PDFF value increase as compared to baseline” value [1] was 5, the “Relative increase in liver fat from baseline” value [1] was 27.9% and the “% Change in liver fat” value [2] was −65.3%. For the same compound, the “Change in MRI PDFF” value [2] was −11.5, the “MRI PDFF value” (patient 208-4020, 900 mg daily, 30 days on study drug, MRI 19 days after dose ended, screening value 17.6) was 6.1 and the “Relative change from baseline in % liver fat” value (patient 208-4020, 900 mg, 30 days on treatment) was −65.3%. For the same compound, the “Liver fat Follow-up” value (patient 208-4020, 900 mg, 30 days on treatment, baseline 17.6) was 6.1%, the “% Change in liver fat” value [3] was −38.5% and the “Change in MRI PDFF” value [3] was −10.7. The “MRI PDFF value” (patient 211-4002, 900 mg daily, 31 days on study drug, MRI 64 days after dose ended, screening value 27.8) was 17.1, the “Relative change from baseline in % liver fat” value (patient 211-4002, 900 mg, 31 days on treatment) was −38.5% and the “Liver fat Follow-up” value (patient 211-4002, 900 mg, 31 days on treatment, baseline 27.8) was 17.1%. The “% Change in liver fat” value [4] was −47.0%, the “Change in MRI PDFF” value [4] was −13.3 and the “MRI PDFF value” (patient 214-4007, 900 mg daily, 44 days on study drug, MRI 16 days after dose ended, screening value 28.3) was 15.0. The “Relative change from baseline in % liver fat” value (patient 214-4007, 900 mg, 44 days on treatment) was −47.0%, the “Liver fat Follow-up” value (patient 214-4007, 900 mg, 44 days on treatment, baseline 28.3) was 15.0% and the “% Change in liver fat” value [5] was “+27.9%”. For the same compound, the “Change in MRI PDFF” value [5] was 5.0, the “MRI PDFF value” (patient 232-4016, 600 mg daily, 39 days on study drug, MRI 26 days after dose ended, screening value 17.9) was 22.9 and the “% Change in liver fat” value [6] was −73.8%. The “Change in MRI PDFF” value [6] was −9.3, the “MRI PDFF value” (patient 233-4018, 600 mg daily, 34 days on study drug, MRI 21 days after dose ended, screening value 12.6) was 3.3 and the “Relative change from baseline in % liver fat” value (patient 233-4018, 600 mg, 34 days on treatment) was −73.8%. The “Liver fat Follow-up” value (patient 233-4018, 600 mg, 34 days on treatment, baseline 12.6) was 3.3* % and the “Mean liver fat content after treatment (FIG. 3C)” value (patient with the greatest reduction, 600 mg daily, baseline 12.6%) was 3.3%.
